Assay results taken from patent US20100216795A1, “TNIK INHIBITOR AND THE USE” (priority 2008, published 2010).

Tests used:
Type in all cases: biochemical
MLK1 = target: T1, MLK1 (Homo sapiens, UniProt P80192); test: Selectivity profiling, QuickScout STK Screening Panel
T1 construct: purchased Carna Biosciences
Protocol: (§1) The inhibitory effects of Compound 1 against 20 tyrosine kinases and 30 serine/threonine kinases were investigated using QuickScout™ TK and STK Screening Panel (Carna Biosciences, Kobe Japan). […] The results reveal that Compound 1 inhibits TNIK_N more potently (IC50; 9 nM) than the other 50 kinases.

AKT1 = target: T2, AKT1 (Homo sapiens, UniProt P31749); test: as above
T2 construct: purchased Carna Biosciences
Protocol: as §1

DYRK1B = target: T3, DYRK1B (Homo sapiens, UniProt Q9Y463); test: as above
T3 construct: purchased Carna Biosciences
Protocol: as §1

RAF1 = RAF1 (Homo sapiens, UniProt P04049); test: as above
Protocol: as §1

PKACa = target: T4, PKACa (Homo sapiens, UniProt P17612); test: as above
T4 construct: purchased Carna Biosciences
Protocol: as §1

MST1 = target: T5, MST1 (Homo sapiens, UniProt Q13043); test: as above
T5 construct: purchased Carna Biosciences
Protocol: as §1

AurA = target: T6, AurA (Homo sapiens, UniProt O14965); test: as above
T6 construct: purchased Carna Biosciences
Protocol: as §1

PDK1 = target: T7, PDK1 (Homo sapiens, UniProt O15530); test: as above
T7 construct: purchased Carna Biosciences
Protocol: as §1

MAP2K1 = target: T8, MAP2K1 (Homo sapiens, UniProt Q02750); test: as above
T8 construct: purchased Carna Biosciences
Protocol: as §1

ROCK1 = target: T9, ROCK1 (Homo sapiens, UniProt Q13464); test: as above
T9 construct: purchased Carna Biosciences
Protocol: as §1

GSK3b = target: T10, GSK3b (Homo sapiens, UniProt P49841); test: as above
T10 construct: purchased Carna Biosciences
Protocol: as §1

p38a = target: T11, p38a (Homo sapiens, UniProt Q16539); test: as above
T11 construct: purchased Carna Biosciences
Protocol: as §1

PAK4 = target: T12, PAK4 (Homo sapiens, UniProt O96013); test: as above
T12 construct: purchased Carna Biosciences
Protocol: as §1

CHK1 = target: T13, CHK1 (Homo sapiens, UniProt O14757); test: as above
T13 construct: purchased Carna Biosciences
Protocol: as §1

DAPK1 = target: T14, DAPK1 (Homo sapiens, UniProt P53355); test: as above
T14 construct: purchased Carna Biosciences
Protocol: as §1

JNK2 = target: T15, JNK2 (Homo sapiens, UniProt P45984); test: as above
T15 construct: purchased Carna Biosciences
Protocol: as §1

PKCa = target: T16, PKCa (Homo sapiens, UniProt P17252); test: as above
T16 construct: purchased Carna Biosciences
Protocol: as §1

CDK2 = target: T17, CDK2 (Homo sapiens, UniProt P24941); test: as above
T17 construct: purchased Carna Biosciences
Protocol: as §1

IRAK4 = target: T18, IRAK4 (Homo sapiens, UniProt Q9NWZ3); test: as above
T18 construct: purchased Carna Biosciences
Protocol: as §1

CaMK4 = target: T19, CaMK4 (Homo sapiens, UniProt Q16566); test: as above
T19 construct: purchased Carna Biosciences
Protocol: as §1

MAPKAPK2 = target: T20, MAPKAPK2 (Homo sapiens, UniProt P49137); test: as above
T20 construct: purchased Carna Biosciences
Protocol: as §1

AMPKa1/b1/g1 = target: T21, AMPKa1/b1/g1 (Homo sapiens, UniProt P54619+Q13131+Q9Y478); test: as above
T21 construct: purchased Carna Biosciences
Protocol: as §1

p70S6K = target: T22, p70S6K (Homo sapiens, UniProt P23443); test: as above
T22 construct: purchased Carna Biosciences
Protocol: as §1

Erk2 = target: T23, Erk2 (Homo sapiens, UniProt P28482); test: as above
T23 construct: purchased Carna Biosciences
Protocol: as §1

PIM1 = target: T24, PIM1 (Homo sapiens, UniProt P11309); test: as above
T24 construct: purchased Carna Biosciences
Protocol: as §1

PKD2 = target: T25, PKD2 (Homo sapiens, UniProt Q9BZL6); test: as above
T25 construct: purchased Carna Biosciences
Protocol: as §1

CK1e = target: T26, CK1e (Homo sapiens, UniProt P49674); test: as above
T26 construct: purchased Carna Biosciences
Protocol: as §1

SGK = target: T27, SGK (Homo sapiens, UniProt O00141); test: as above
T27 construct: purchased Carna Biosciences
Protocol: as §1

NEK2 = target: T28, NEK2 (Homo sapiens, UniProt P51955); test: as above
T28 construct: purchased Carna Biosciences
Protocol: as §1

IKKb = target: T29, IKKb (Homo sapiens, UniProt O14920); test: as above
T29 construct: purchased Carna Biosciences
Protocol: as §1

PYK2 = target: T30, PYK2 (Homo sapiens, UniProt Q14289); test: Selectivity profiling, QuickScout TK Screening Panel
T30 construct: purchased Carna Biosciences
Protocol: as §1

IGF1R = target: T31, IGF1R (Homo sapiens, UniProt P08069); test: as above
T31 construct: purchased Carna Biosciences
Protocol: as §1

PDGFRa = target: T32, PDGFRa (Homo sapiens, UniProt P16234); test: as above
T32 construct: purchased Carna Biosciences
Protocol: as §1

SYK = target: T33, SYK (Homo sapiens, UniProt P43405); test: as above
T33 construct: purchased Carna Biosciences
Protocol: as §1

TIE2 = target: T34, TIE2 (Homo sapiens, UniProt Q02763); test: as above
T34 construct: purchased Carna Biosciences
Protocol: as §1

KDR = target: T35, KDR (Homo sapiens, UniProt P35968); test: as above
T35 construct: purchased Carna Biosciences
Protocol: as §1

EphA2 = target: T36, EphA2 (Homo sapiens, UniProt P29317); test: as above
T36 construct: purchased Carna Biosciences
Protocol: as §1

FLT3 = target: T37, FLT3 (Homo sapiens, UniProt P36888); test: as above
T37 construct: purchased Carna Biosciences
Protocol: as §1

ITK = target: T38, ITK (Homo sapiens, UniProt Q08881); test: as above
T38 construct: purchased Carna Biosciences
Protocol: as §1

TYRO3 = target: T39, TYRO3 (Homo sapiens, UniProt Q06418); test: as above
T39 construct: purchased Carna Biosciences
Protocol: as §1

T14 sequence (P53355 whole entry): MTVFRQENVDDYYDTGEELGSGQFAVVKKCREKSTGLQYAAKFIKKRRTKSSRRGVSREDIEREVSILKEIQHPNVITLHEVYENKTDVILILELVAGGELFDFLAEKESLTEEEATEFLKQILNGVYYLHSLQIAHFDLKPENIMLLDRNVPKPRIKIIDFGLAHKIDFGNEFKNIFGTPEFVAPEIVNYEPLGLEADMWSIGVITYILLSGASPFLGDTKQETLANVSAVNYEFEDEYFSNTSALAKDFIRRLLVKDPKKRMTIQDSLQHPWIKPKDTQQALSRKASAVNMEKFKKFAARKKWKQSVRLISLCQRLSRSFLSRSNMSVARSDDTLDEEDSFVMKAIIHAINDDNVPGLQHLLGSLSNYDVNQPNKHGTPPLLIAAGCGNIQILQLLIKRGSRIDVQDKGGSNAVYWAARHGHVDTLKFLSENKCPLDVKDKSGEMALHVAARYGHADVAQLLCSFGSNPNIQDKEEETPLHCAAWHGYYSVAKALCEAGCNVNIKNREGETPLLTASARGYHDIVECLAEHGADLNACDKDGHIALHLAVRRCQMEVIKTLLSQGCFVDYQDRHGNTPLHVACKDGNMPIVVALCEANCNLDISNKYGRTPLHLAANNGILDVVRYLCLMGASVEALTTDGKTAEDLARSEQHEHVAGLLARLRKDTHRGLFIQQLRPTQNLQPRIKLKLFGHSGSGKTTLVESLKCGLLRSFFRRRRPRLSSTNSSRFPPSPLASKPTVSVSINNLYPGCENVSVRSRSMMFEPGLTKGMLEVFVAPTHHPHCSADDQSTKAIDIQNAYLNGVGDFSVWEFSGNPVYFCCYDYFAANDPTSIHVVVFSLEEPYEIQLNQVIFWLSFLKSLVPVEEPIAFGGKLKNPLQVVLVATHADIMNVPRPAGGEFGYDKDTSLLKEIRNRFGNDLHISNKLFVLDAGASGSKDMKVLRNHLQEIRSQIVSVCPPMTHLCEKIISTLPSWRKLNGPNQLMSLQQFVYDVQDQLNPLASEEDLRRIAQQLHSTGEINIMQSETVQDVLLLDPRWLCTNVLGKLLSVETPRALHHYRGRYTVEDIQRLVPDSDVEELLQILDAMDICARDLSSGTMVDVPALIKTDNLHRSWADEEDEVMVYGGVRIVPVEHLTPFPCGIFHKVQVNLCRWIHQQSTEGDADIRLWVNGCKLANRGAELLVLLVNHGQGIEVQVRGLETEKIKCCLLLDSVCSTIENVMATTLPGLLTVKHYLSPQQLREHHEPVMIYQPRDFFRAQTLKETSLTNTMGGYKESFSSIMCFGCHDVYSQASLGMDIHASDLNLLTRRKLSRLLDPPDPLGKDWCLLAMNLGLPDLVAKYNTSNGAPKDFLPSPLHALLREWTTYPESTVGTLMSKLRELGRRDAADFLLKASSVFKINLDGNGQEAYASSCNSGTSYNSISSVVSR
T31 sequence (P08069 31-1367): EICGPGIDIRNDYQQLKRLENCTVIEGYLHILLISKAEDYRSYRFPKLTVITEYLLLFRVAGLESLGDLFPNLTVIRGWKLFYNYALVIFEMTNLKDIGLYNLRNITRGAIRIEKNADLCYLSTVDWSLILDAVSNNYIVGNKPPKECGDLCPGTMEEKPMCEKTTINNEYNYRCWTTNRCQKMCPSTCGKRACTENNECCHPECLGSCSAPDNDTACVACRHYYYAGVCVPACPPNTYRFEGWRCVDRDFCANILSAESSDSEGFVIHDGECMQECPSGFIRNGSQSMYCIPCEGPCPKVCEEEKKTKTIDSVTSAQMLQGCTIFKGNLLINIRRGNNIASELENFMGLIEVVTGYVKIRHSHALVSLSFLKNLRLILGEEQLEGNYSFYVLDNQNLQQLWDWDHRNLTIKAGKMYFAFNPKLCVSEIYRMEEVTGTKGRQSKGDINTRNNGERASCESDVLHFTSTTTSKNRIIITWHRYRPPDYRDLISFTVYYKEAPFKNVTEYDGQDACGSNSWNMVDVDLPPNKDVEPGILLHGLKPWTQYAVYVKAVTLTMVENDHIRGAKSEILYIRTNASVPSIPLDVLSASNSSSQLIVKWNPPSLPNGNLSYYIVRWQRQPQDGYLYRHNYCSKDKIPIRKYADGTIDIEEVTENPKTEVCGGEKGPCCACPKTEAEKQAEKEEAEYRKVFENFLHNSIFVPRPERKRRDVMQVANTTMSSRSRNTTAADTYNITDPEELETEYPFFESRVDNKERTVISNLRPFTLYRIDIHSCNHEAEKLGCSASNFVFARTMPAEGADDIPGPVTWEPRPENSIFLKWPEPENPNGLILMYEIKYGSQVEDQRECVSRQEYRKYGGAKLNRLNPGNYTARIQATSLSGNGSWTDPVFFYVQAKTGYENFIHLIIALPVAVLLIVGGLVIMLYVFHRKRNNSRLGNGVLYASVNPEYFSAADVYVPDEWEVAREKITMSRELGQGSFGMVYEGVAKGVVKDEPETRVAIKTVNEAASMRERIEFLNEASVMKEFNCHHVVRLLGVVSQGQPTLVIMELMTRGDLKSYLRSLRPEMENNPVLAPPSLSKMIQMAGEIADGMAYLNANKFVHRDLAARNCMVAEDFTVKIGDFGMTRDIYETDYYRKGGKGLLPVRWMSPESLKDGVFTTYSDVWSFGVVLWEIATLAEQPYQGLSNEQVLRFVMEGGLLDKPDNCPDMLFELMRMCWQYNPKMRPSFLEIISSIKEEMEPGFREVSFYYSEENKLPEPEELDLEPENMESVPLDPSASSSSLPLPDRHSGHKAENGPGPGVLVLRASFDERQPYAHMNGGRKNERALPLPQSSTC
T23 sequence (P28482 whole entry): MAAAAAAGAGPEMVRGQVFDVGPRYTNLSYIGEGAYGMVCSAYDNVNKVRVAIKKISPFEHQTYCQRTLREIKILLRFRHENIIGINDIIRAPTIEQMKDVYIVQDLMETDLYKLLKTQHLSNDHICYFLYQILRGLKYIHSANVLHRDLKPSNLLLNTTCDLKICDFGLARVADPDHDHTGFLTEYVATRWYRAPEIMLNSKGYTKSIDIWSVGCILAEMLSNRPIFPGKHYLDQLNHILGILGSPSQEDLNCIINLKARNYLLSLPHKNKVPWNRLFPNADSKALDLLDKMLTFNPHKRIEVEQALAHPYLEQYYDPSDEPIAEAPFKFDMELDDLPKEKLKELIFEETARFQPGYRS
T1 sequence (P80192 whole entry): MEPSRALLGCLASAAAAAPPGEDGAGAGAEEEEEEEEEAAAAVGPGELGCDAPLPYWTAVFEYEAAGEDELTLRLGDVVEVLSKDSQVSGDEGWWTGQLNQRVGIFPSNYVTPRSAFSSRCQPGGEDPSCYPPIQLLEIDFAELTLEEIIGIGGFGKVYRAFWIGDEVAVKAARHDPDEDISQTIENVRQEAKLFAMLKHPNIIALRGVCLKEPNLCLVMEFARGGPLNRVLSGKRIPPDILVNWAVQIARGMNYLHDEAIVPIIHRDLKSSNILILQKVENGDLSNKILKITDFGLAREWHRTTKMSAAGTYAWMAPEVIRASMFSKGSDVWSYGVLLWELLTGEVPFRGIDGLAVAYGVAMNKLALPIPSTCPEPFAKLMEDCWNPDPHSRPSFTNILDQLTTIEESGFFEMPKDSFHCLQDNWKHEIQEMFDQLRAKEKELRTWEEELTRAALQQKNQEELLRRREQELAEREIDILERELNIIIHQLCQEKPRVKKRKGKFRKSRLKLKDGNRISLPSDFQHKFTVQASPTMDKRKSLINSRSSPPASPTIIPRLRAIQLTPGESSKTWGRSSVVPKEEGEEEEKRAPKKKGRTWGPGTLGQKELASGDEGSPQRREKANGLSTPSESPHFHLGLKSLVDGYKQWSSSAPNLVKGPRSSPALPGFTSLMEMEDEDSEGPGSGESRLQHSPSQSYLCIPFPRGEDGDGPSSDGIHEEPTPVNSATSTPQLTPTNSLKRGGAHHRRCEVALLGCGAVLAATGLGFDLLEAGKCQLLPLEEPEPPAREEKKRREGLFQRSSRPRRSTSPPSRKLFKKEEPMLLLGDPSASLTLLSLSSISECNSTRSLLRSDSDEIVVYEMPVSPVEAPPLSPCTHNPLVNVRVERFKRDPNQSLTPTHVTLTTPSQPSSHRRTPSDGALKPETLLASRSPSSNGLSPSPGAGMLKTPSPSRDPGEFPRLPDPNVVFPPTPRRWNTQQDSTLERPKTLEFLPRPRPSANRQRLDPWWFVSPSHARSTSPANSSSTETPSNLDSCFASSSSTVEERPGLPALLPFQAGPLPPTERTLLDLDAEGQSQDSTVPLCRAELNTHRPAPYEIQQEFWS
T18 sequence (Q9NWZ3 whole entry): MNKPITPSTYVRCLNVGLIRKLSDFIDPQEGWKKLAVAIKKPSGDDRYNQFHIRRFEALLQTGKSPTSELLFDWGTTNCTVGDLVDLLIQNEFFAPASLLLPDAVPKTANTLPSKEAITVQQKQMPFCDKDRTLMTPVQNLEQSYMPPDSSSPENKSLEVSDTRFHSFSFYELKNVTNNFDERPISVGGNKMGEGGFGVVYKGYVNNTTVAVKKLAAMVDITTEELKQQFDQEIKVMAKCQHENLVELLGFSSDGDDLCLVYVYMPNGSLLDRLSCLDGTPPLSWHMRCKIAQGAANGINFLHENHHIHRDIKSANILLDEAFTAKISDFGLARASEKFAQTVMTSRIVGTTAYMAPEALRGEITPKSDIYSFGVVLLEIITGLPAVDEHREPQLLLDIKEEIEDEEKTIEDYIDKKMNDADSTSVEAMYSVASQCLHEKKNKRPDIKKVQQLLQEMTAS
T20 sequence (P49137 whole entry): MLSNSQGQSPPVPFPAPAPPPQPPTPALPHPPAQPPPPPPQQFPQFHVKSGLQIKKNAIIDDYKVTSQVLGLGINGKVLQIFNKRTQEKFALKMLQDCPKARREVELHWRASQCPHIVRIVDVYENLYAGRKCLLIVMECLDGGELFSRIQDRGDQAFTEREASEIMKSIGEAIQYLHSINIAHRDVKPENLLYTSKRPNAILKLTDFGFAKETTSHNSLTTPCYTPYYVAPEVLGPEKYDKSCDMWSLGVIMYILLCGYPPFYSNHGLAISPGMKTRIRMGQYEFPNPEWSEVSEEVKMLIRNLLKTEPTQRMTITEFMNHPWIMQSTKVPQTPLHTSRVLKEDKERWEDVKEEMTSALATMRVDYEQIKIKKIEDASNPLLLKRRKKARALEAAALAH

## CC(=O)Nc1ccc(C(=O)Nc2sc(Nc3ccccc3)nc2C(N)=O)cc1 [Compound 1, 5-(4-acetamidobenzamido)-2-(phenylamino)thiazole-4-carboxamide]
MLK1
  IC50: 18 nM
AKT1
  IC50: > 300 nM
DYRK1B
  IC50: > 300 nM
RAF1
  IC50: > 300 nM
PKACa
  IC50: > 300 nM
MST1
  IC50: > 300 nM
AurA
  IC50: 130 nM
PDK1
  IC50: > 300 nM
MAP2K1
  IC50: > 300 nM
ROCK1
  IC50: > 300 nM
GSK3b
  IC50: 120 nM
p38a
  IC50: > 300 nM
PAK4
  IC50: > 300 nM
CHK1
  IC50: > 300 nM
DAPK1
  IC50: > 300 nM
JNK2
  IC50: > 300 nM
PKCa
  IC50: > 300 nM
CDK2
  IC50: > 300 nM
IRAK4
  IC50: > 300 nM
CaMK4
  IC50: > 300 nM
MAPKAPK2
  IC50: > 300 nM
AMPKa1/b1/g1
  IC50: > 300 nM
p70S6K
  IC50: > 300 nM
Erk2
  IC50: > 300 nM
PIM1
  IC50: > 300 nM
PKD2
  IC50: > 300 nM
CK1e
  IC50: > 300 nM
SGK
  IC50: > 300 nM
NEK2
  IC50: > 300 nM
IKKb
  IC50: > 300 nM
PYK2
  IC50: > 300 nM
IGF1R
  IC50: > 300 nM
PDGFRa
  IC50: 150 nM
SYK
  IC50: > 300 nM
TIE2
  IC50: > 300 nM
KDR
  IC50: 59 nM
EphA2
  IC50: > 300 nM
FLT3
  IC50: 95 nM
ITK
  IC50: > 300 nM
TYRO3
  IC50: > 300 nM
